The record followed here is PubChem BioAssay (NCI).

Test systems include KM12 colon; HL-60(TB) leukemia; K-562 leukemia; SNB-19 CNS; HT29 colon; NCI-H460 lung; SW-620 colon; HCC-2998 colon; SR leukemia; MALME-3M melanoma.
What all share (assay): growth of human tumour cells (NCI), 48 h

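Following 48 hours of exposure in 96-well plates, responses at five concentrations were used to interpolate endpoints linearly. GI50 = concentration required for 50% inhibition of growth. TGI marks complete inhibition of growth.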

Consider `CCCCS(=O)CCC(N)C(=O)O` (stereo not given), for which the TGI in the assay on KM12 colon, in the assay on HL-60(TB) leukemia, in the assay on K-562 leukemia, in the assay with SNB-19 CNS, with HT29 colon and in the assay on NCI-H460 lung was over 100 µM in each case. Moreover, the TGI in the assay with SW-620 colon, in the assay with HCC-2998 colon, in the assay with SR leukemia and in the assay with MALME-3M melanoma was over 100 µM each time.
Take `CC1OC(OCC2OC(Oc3c(-c4ccc(O)cc4)oc4cc(O)cc(O)c4c3=O)C(OC3OC(C)C(O)C(O)C3O)C(O)C2O)C(O)C(O)C1O` (stereo not given): the TGI is over 100 µM with KM12 colon; over 100 µM with HL-60(TB) leukemia; over 31.6 µM in the assay with K-562 leukemia; over 100 µM in the assay on SNB-19 CNS; over 100 µM in the assay on HT29 colon; over 100 µM with NCI-H460 lung. Moreover, the TGI with SW-620 colon was over 62.4 µM; in the assay on HCC-2998 colon it was over 100 µM; in the assay on SR leukemia, over 100 µM; with MALME-3M melanoma, over 100 µM.
Regarding `COC1=CC(=O)C2C(C1=O)[C@@H]1c3ccccc3C[C@H]21` (stereo not given in full), the TGI in the assay on KM12 colon, in the assay with HL-60(TB) leukemia, in the assay with K-562 leukemia, in the assay with SNB-19 CNS, in the assay on HT29 colon and in the assay on NCI-H460 lung was over 100 µM in each case. In addition, the TGI with SW-620 colon, in the assay with HCC-2998 colon, with SR leukemia and in the assay on MALME-3M melanoma was over 100 µM each time.
As for `Cc1ccc(/C(=N\N=C(N)N)c2ccccc2)cc1`, the GI50 is 0.367 µM in the assay with KM12 colon; 0.318 µM with HL-60(TB) leukemia; 0.339 µM in the assay on K-562 leukemia; 0.455 µM with SNB-19 CNS; 0.344 µM in the assay on HT29 colon; 0.33 µM in the assay on NCI-H460 lung. Besides, the GI50 with SW-620 colon is 0.418 µM; in the assay with HCC-2998 colon, 0.241 µM; in the assay with SR leukemia, 1.83 µM; in the assay with MALME-3M melanoma, 0.391 µM. For the same molecule, the TGI is 5.05 µM with KM12 colon; over 36.2 µM in the assay with HL-60(TB) leukemia; over 100 µM with K-562 leukemia; 13.1 µM in the assay with SNB-19 CNS; 5.73 µM in the assay with HT29 colon; 3.19 µM in the assay on NCI-H460 lung. For the same molecule, the TGI with SW-620 colon was found to be 19.1 µM; with HCC-2998 colon, 0.677 µM; with SR leukemia it was 24.8 µM; with MALME-3M melanoma, 17.3 µM.
Take `CCCCCCCNc1nc(C(=O)OCC)ncc1-c1ccc(C(F)(F)F)cc1`: the GI50 is 33.6 µM in the assay with KM12 colon; 30.4 µM in the assay on HL-60(TB) leukemia; 36.8 µM with K-562 leukemia; 33.4 µM with SNB-19 CNS; 41.5 µM in the assay with HT29 colon; 14.7 µM with NCI-H460 lung. Moreover, the GI50 in the assay with SW-620 colon is 41.5 µM; with HCC-2998 colon, 41.5 µM; in the assay on SR leukemia, 35.5 µM; in the assay with MALME-3M melanoma it was 41.8 µM. Moreover, the TGI is over 100 µM in the assay on KM12 colon; 88.8 µM in the assay with HL-60(TB) leukemia; over 100 µM in the assay on K-562 leukemia; over 100 µM in the assay with SNB-19 CNS; over 100 µM in the assay with HT29 colon; 32.7 µM in the assay with NCI-H460 lung. The TGI with SW-620 colon, with HCC-2998 colon, with SR leukemia and with MALME-3M melanoma was over 100 µM in each case.
Regarding `COc1ccccc1/C=C1\CCC(CCN(C)C)(C2=CCCC2)C1=O` (stereo not given), the TGI in the assay on KM12 colon stood at 33 µM; in the assay on HL-60(TB) leukemia it was 45.5 µM; with K-562 leukemia, 56.2 µM; in the assay on SNB-19 CNS, 31.1 µM; with HT29 colon, 39.3 µM; in the assay with NCI-H460 lung, 31.4 µM. Moreover, the TGI in the assay with SW-620 colon came out at 32.1 µM; with HCC-2998 colon it was 31.9 µM; in the assay on SR leukemia it was 52.3 µM; in the assay with MALME-3M melanoma, 30.3 µM.
Take `CC(C)C1(O)C(c2ccccc2)=C(c2ccccc2)C(c2ccccc2)=C1c1ccccc1`: the TGI in the assay with KM12 colon is 17.9 µM; with HL-60(TB) leukemia, 7.07 µM; with K-562 leukemia, over 100 µM; in the assay with SNB-19 CNS, over 100 µM; in the assay with HT29 colon it was 16 µM; in the assay with NCI-H460 lung, 46.8 µM. In addition, the TGI in the assay on SW-620 colon was over 100 µM; in the assay on HCC-2998 colon, 30.4 µM; in the assay with SR leukemia it was 36 µM; in the assay with MALME-3M melanoma, 30.9 µM.
Consider `CCCCc1c2c(nc3c1CCc1cc4cc5c(nc4nc1-3)-c1nc3c(c(CCCC)c1CC5)CCCC3)CCCC2`, for which the TGI in the assay on KM12 colon is over 100 µM; in the assay on HL-60(TB) leukemia, over 100 µM; with K-562 leukemia, over 100 µM; with SNB-19 CNS, over 100 µM; in the assay on HT29 colon, 31.5 µM; with NCI-H460 lung, over 100 µM. In addition, the TGI in the assay with SW-620 colon, in the assay on HCC-2998 colon, in the assay on SR leukemia and in the assay with MALME-3M melanoma was over 100 µM in each case.
In the case of `O=C1C(c2c[nH]c3ccccc23)=C(c2c[nH]c3ccccc23)C(=O)N1O`, the GI50 with KM12 colon, in the assay with HL-60(TB) leukemia, in the assay with K-562 leukemia, with SNB-19 CNS, with HT29 colon and in the assay on NCI-H460 lung was over 25 µM each time. Further, the GI50 with SW-620 colon, with HCC-2998 colon, with SR leukemia and in the assay on MALME-3M melanoma was over 25 µM throughout. In addition, the TGI in the assay on KM12 colon, in the assay with HL-60(TB) leukemia, in the assay with K-562 leukemia, with SNB-19 CNS, in the assay on HT29 colon and in the assay on NCI-H460 lung was over 25 µM throughout. For the same molecule, the TGI in the assay with SW-620 colon, with HCC-2998 colon, in the assay with SR leukemia and in the assay with MALME-3M melanoma was over 25 µM each time.
For the molecule `COc1ccc(-c2oc3c(OC)c(OC)c(OC)c(O)c3c(=O)c2OC)cc1OC`, the TGI with KM12 colon was over 100 µM; in the assay with HL-60(TB) leukemia, 26.1 µM; with K-562 leukemia, over 54.3 µM; in the assay on SNB-19 CNS it was over 100 µM; with HT29 colon, over 78.2 µM; in the assay on NCI-H460 lung, over 83.7 µM. For the same molecule, the TGI in the assay on SW-620 colon was over 66.1 µM; in the assay with HCC-2998 colon it was over 67 µM; with SR leukemia it was 45.1 µM; with MALME-3M melanoma, 97.1 µM.
